Measurements from ChEMBL document CHEMBL1144416, “Structural requirements for factor Xa inhibition by 3-oxybenzamides with neutral P1 substituents: combining X-ray crystallography, 3D-QSAR, and tailored scoring functions” (J Med Chem, 2005).

Assays:
[1] = target: Coagulation factor X (Homo sapiens, UniProt P00742); assay: Binding affinity towards human Coagulation factor X
[2] = Binding affinity towards Thrombin; design: species or system Homo sapiens

Sequence of Coagulation factor X (P00742 41-179 limits assumed): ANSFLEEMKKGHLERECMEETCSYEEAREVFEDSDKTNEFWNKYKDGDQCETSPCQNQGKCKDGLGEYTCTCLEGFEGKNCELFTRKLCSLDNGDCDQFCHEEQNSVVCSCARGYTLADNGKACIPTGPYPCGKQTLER
Sequence of Coagulation factor X (P00742 235-488 limits assumed): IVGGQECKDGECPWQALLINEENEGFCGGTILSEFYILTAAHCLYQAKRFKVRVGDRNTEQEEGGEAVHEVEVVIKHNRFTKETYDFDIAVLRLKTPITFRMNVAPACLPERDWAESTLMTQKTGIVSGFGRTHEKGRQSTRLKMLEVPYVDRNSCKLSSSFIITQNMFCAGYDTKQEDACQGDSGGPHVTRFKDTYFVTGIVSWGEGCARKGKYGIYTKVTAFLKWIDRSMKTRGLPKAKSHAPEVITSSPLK

Row | SMILES | Ki [1] [µM] | Ki [2] [µM]
1 | COc1ccc(C(=O)NC2CCN(c3cc[n+]([O-])cc3)CC2)cc1OCCc1ccc(Cl)cc1Cl | 1.27 | –
2 | O=C(NCC1CCN(c2ccncc2)CC1)c1ccc(Cl)c(OCCc2ccc(Cl)cn2)c1 | – | 5.4
3 | O=C(NCC1CCN(c2ccncc2)CC1)c1cc(OCCc2ccc(Cl)cc2Cl)c2c(c1)OCO2 | – | 1.68
4 | O=C(NCC1CCN(c2ccncc2)CC1)c1ccc(Cl)c(OCCc2ccc(Br)cc2)c1 | – | 4.73
5 | CCOc1ccc(C(=O)NCC2CCN(c3ccncc3)CC2)cc1OCCc1ccc(Cl)cc1Cl | – | 6.32
6 | CC(=O)Nc1ccc(CCOc2cc(C(=O)NCC3CCN(c4ccncc4)CC3)ccc2Cl)cc1 | 10 | –
7 | O=C(NCC1CCN(c2ccncc2)CC1)c1ccc(Cl)c(OCCc2ccc(Cl)cc2)c1 | – | 2.76
8 | COc1cc(C(=O)NCC2CCN(c3ccncc3)CC2)cc(OCCc2ccc(Cl)cc2Cl)c1C | – | 1.74
9 | COc1ccc(C(=O)NCC2CCN(c3ccnc(C)c3)CC2)cc1OCCc1ccc(Cl)cc1Cl | – | 20.8
10 | CC(=O)Oc1cc(C(=O)NCC2CCN(c3ccncc3)CC2)cc(OCCc2ccc(Cl)cc2Cl)c1Br | 0.285 | –
11 | NC(=O)c1cc(OCCc2ccc(Cl)cc2Cl)cc(C(=O)NCC2CCN(c3ccncc3)CC2)c1 | – | 5.08
12 | COc1cc(C(=O)NCC2CCN(c3ccncc3)CC2)cc(OCCc2ccc(Cl)cc2Cl)c1Cl | – | 1.8
13 | O=C(NCC1CCN(c2ccncc2)CC1)c1ccc(F)c(OCCc2ccc(Cl)cc2)c1 | – | 5.62
14 | COc1ccc(C(=O)NCC2CCN(C3CCNCC3)CC2)cc1OCCc1ccc(Cl)cc1Cl | 5.76 | –
15 | COc1ccc(C(=O)NC2CCN(C3CCCCC3)CC2)cc1OCCc1ccc(Cl)cc1Cl | 4.03 | –
16 | COc1ccc(C(=O)NC2CCN(CC(=O)N3CCCC3)CC2)cc1OCCc1ccc(Cl)cc1Cl | 2.57 | –
17 | COc1cc(C(=O)NCC2CCN(c3ccncc3)CC2)cc(OCCc2ccc(Cl)cc2Cl)c1Br | – | 2.27
18 | COc1cc(C(=O)NCC2CCN(c3ccncc3)CC2)cc(OCCc2ccc(Cl)cc2)c1Cl | – | 3.73
19 | COc1ccc(C(=O)NCC2CCN(c3cccc(C#N)c3)CC2)cc1OCCc1ccc(Cl)cc1Cl | 10 | –
20 | O=C(c1cccc(OCCc2ccc(Cl)cc2Cl)c1)N1CCN(Cc2ccncc2)CC1 | 2.82 | –

Row | SMILES | Ki [1] [µM] | Ki [2] [µM]
21 | O=C(NCC1CCN(c2ccncc2)CC1)c1ccc(Cl)c(OCCc2ccc(Cl)cc2Cl)c1 | – | 3.06
22 | COc1ccc(C(=O)NCC2CCN(c3ccc(Cl)cc3)CC2)cc1OCCc1ccc(Cl)cc1Cl | 10 | –
23 | COc1ccc(N2CCC(CNC(=O)c3ccc(OC)c(OCCc4ccc(Cl)cc4Cl)c3)CC2)cn1 | 10 | –
24 | COc1cc(N2CCC(CNC(=O)c3ccc(OC)c(OCCc4ccc(Cl)cc4Cl)c3)CC2)nc(OC)n1 | 10 | –
25 | COc1ccc(C(=O)NC2CCN(C3CCOCC3)CC2)cc1OCCc1ccc(Cl)cc1Cl | 2.52 | –
26 | O=C(NCC1CCN(c2ccncc2)CC1)c1ccc(C(F)(F)F)c(OCCc2ccc(Cl)cc2Cl)c1 | – | 31.8
27 | COc1ccc(C(=O)NCC2CCN(c3ccncc3)CC2)cc1OCCc1ccc(Cl)cc1 | – | 5.27
28 | CCN(CC)C(=O)[C@H](CCCN=C(N)N)NC(=O)c1ccc(OC)c(OCCc2ccc(Cl)cc2Cl)c1 | 0.153 | –
29 | COc1ccc(C(=O)NCC2CCN(c3ccc(S(C)(=O)=O)cc3)CC2)cc1OCCc1ccc(Cl)cc1Cl | 10 | –
30 | COc1ccc(C(=O)NCC2CCN(c3cncnc3)CC2)cc1OCCc1ccc(Cl)cc1Cl | 10 | –
31 | COc1ccc(C(=O)NCC2CCN(c3ccnc(SC)n3)CC2)cc1OCCc1ccc(Cl)cc1Cl | 10 | –
32 | COc1ccc(C(=O)NCC2CCN(c3cc(C)nc(N)n3)CC2)cc1OCCc1ccc(Cl)cc1Cl | 10 | –
33 | COc1cc(C(=O)NCC2CCN(c3ccncc3)CC2)cc(OCCc2ccc(Cl)cc2Cl)c1OC | – | 4.12
34 | COc1ccc(C(=O)N2CCN(Cc3ccc(F)cc3)CC2)cc1OCCc1ccc(Cl)cc1Cl | 3.93 | –
35 | CCOc1cc(C(=O)NCC2CCN(c3ccncc3)CC2)cc(OCCc2ccc(Cl)cc2Cl)c1Br | – | 36.9
36 | CNc1ccc(C(=O)NCC2CCN(c3ccncc3)CC2)cc1OCCc1ccc(Cl)cc1Cl | – | 1.1
37 | Cc1ccc(C(=O)NCC2CCN(c3ccncc3)CC2)cc1OCCc1ccc(Cl)cc1Cl | – | 4.87
38 | COc1ccc(C(=O)Nc2ccc(-c3ccccc3C#N)cc2)cc1OCCc1ccc(Cl)cc1Cl | 10 | –
39 | CC(=O)Nc1ccc(CCOc2cc(C(=O)NCC3CCN(c4ccncc4)CC3)ccc2F)cc1 | 10 | –
